Structures can show the parent of a compound that is named as a salt.
Columns and labels:
APO-induced climbing = experiment: Inhibition of apomorphine (APO) induced climbing; assay type: in vivo, CD-1 (Charles River) male mice; conditions: for ED50: Mus musculus, po, mice, 1 mg/kg s.c. apomorphine 60 min after pretreatment
Description: CD-1 (Charles River) male mice weighing 22 to 24 g were pretreated with 1% Tween 80 solution of the compound to be tested. […] Six animals were used in each group. At 60 minutes after pretreatment, the animals were treated subcutaneously with 1 mg/kg of apomorphine (APO). From the 10th to 25th minute following APO treatment the animals were scored in each minute as follows: 0: all the four legs of the animal are on the ground; 1: the animal climbs on the grid by its both forelegs; 2: the animal climbs on the grid by all its four legs. The inhibitory effect was related to the APO control group, which could achieve 32 scores as a maximum.

APO-induced sniffing = experiment: Inhibition of APO-induced sniffing stereotypy; assay type: in vivo, CD-1 (Charles River) male mice; conditions: for ED50: Mus musculus, po, mice, 1 mg/kg s.c. apomorphine 60 min after pretreatment; for Sniff./Climb. ratio: ratio of ED50 sniffing to ED50 climbing, p.o.
D-2 dopamine receptor = D-2 dopamine receptor (Homo sapiens, UniProt P14416); experiment: biochemical; assay type: binding; conditions: 0.5 nM 3H-spiperone
[1] = biological target: T1, 5-HT1A subtype of serotonin receptor (Rattus norvegicus, UniProt P19327); experiment: biochemical; assay type: binding; conditions: for IC50: 0.5 nM 3H-8-OH-DPAT; for D-2/5-HT1A ratio: ratio of receptor IC50 values
T1 sequence (P19327 1-422): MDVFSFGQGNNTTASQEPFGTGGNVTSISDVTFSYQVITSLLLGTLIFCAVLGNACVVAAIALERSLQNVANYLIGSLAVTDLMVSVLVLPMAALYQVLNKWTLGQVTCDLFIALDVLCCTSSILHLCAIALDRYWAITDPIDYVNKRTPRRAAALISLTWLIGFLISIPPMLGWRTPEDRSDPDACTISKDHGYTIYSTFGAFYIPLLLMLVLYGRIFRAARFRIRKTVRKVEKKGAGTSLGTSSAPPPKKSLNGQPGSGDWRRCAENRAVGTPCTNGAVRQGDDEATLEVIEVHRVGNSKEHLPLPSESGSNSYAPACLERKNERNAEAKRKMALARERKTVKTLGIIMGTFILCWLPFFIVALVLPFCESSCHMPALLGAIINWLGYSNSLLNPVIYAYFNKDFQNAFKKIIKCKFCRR
Description: Determination of the 5-HT1A subtype of serotonin receptor was carried out by a modification [M. D. Hall et al.: J. Neurochem. […] 0.5 nM ^3 H-8-OH-DPAT was used as ligand, where non-specific binding was determined by using 10 μM serotonin.

α-1 receptor = experiment: Alpha-1 receptor binding (3H-prazosin)
Description: The non-specific binding was measured with 10 μM (±)-phentolamine.

D-2 dopamine receptor, sequence (P14416 whole entry): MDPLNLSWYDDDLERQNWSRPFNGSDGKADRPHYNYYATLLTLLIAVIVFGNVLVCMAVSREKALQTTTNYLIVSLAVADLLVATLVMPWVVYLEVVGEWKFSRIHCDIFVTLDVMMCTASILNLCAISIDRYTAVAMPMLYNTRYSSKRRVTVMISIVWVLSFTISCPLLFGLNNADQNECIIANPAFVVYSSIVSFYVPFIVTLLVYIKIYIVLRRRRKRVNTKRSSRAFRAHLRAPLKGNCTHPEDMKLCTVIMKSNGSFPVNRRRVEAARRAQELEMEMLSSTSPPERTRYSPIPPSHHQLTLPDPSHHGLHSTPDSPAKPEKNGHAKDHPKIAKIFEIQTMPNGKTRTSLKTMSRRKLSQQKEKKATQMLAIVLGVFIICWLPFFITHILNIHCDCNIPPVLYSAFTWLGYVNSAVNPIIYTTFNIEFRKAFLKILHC

SMILES | IC50 (D-2 dopamine receptor) [nM] | IC50 [1] [nM] | IC50 (α-1 receptor) [nM] | ED50 (APO-induced climbing) [mg/kg] | ED50 (APO-induced sniffing) [mg/kg] | Sniff./Climb. ratio (APO-induced sniffing) | ED50 values (climbing) compared with clozapine, in words (APO-induced climbing; oral, relative to clozapine) | oral activity as compared to clozapine (APO-induced climbing; oral, relative to clozapine) | D-2/5-HT1A ratio [1] | activity on 5-HT1A receptor subtypes, in words [1]
COc1ccccc1N1CCN(CCOc2ccc(-c3cc4ccccn4c3)cc2)CC1.Cl.Cl [Compound 4510407, 1-(2-Methoxyphenyl)-4-{2-[4-(2-indolizinyl)phenoxy]ethyl}piperazine dihydrochloride] | 258 | 802 | 542 | > 30 | – | – | – | – | – | –
COc1ccccc1N1CCN(CCOc2ccc(-c3cn4cccnc4n3)cc2)CC1 [Compound 4510411, 1-(2-Methoxyphenyl)-4-{2-[4-(2-imidazo[1,2-a]pyrimidinyl)phenoxy]ethyl}piperazine] | 133 | 10 | 63 | 3.4 | > 30 | > 8.8 | lower than or equal to that of clozapine | – | – | –
COc1ccccc1N1CCN(CCCOc2ccc(-c3cc4ccccn4c3)cc2)CC1.Cl.Cl [Compound 4510423, 1-(2-Methoxyphenyl)-4-{3-[4-[2-indolizinyl)phenoxy]propyl}piperazine dihydrochloride] | 77 | 1000 | 359 | 4.1 | > 10 | > 2.4 | – | – | – | –
COc1ccccc1N1CCN(CCOc2ccc(-c3cn4ccsc4n3)cc2)CC1.Cl.Cl.Cl [Compound 4510470, 1-(2-Methoxyphenyl)-4-{2-[4-[6-imidazo[2,1-b]thiazolyl]phenoxy]ethyl}piperazine trihydrochloride] | 73 | 38 | 101 | 0.8 | 4.5 | 5.6 | – | ten-fold | 1.9 | –
COc1ccccc1N1CCN(CCOc2ccc(-c3cn4c(n3)SCC4)cc2)CC1 [Compound 4510471, 1-(2-Methoxyphenyl)-4-{2-[4-[6-(2,3-dihydroimidazo[2,1-b]thiazol)-yl]phenoxy]ethyl}piperazine trihydrochloride] | 117 | 29 | 75 | 6.3 | > 30 | 4.8 | – | – | – | –
COc1ccccc1N1CCN(CCCCOc2ccc(-c3cc4ccccn4c3)cc2)CC1 [Compound 4510613, 1-(2-Methoxyphenyl)-4-{4-[4-(2-indolizinyl)phenoxy]butyl}piperazine] | 99 | 243 | 842 | 14.8 | > 30 | > 2.0 | – | – | – | –
COc1ccccc1N1CCN(CCCCOc2ccc(-c3cn4ccccc4n3)cc2)CC1 [Compound 4510915, 1-(2-Methoxyphenyl)-4-{4-[4-(2-imidazo[1,2-a]pyridinyl)phenoxy]butyl}piperazine] | 69 | 21 | 34 | 10.7 | – | – | – | – | – | –
COc1ccccc1N1CCN(CCCCOc2ccc(-c3cn4ccsc4n3)cc2)CC1.Cl.Cl.Cl [Compound 4510916, 1-(2-Methoxyphenyl)4-{4-[4-[6-imidazo[2,1-b]thiazolyl]phenoxy]butyl}piperazine trihydrochloride] | 55 | 8 | 28 | 6.1 | ~30 | > 4.9 | – | – | 6.9 | especially strong activity

More lines, in order of falling IC50 (D-2 dopamine receptor), values ahead:

IC50 (D-2 dopamine receptor) [nM] | IC50 [1] [nM] | IC50 (α-1 receptor) [nM] | SMILES | ED50 (APO-induced climbing) [mg/kg] | ED50 (APO-induced sniffing) [mg/kg] | Sniff./Climb. ratio (APO-induced sniffing) | ED50 values (climbing) compared with clozapine, in words (APO-induced climbing; oral, relative to clozapine) | oral activity as compared to clozapine (APO-induced climbing; oral, relative to clozapine) | D-2/5-HT1A ratio [1] | activity on 5-HT1A receptor subtypes, in words [1]
56 | 70 | 36 | COc1ccccc1N1CCN(CCOc2ccc(-c3cn4ccccc4n3)cc2)CC1 [Compound 4510408, 1-(2-Methoxyphenyl)-4-{2-[4-(2-imidazo[1,2-a]pyridinyl)phenoxy]ethyl}piperazine] | 2.4 | ~10 | 4.1 | lower than or equal to that of clozapine | – | – | –
56 | 9 | 16 | COc1ccccc1N1CCN(CCCCOc2ccc(-c3cn4c(n3)SCC4)cc2)CC1 [Compound 4510991, 1-(2-Methoxyphenyl)-4-{4-[4-[6-(2,3-dihydroimidazo[2,1-b]thiazol)-yl]phenoxy]butyl}piperazine] | ~30 | > 30 | > 1.0 | – | – | – | especially strong activity
55 | 12 | 22 | COc1ccccc1N1CCN(CCCCOc2ccc(-c3cn4cccnc4n3)cc2)CC1 [Compound 4510645, 1-(2-Methoxyphenyl)-4-{4-[4-(2-imidazo[1,2-a]pyrimidinyl)phenoxy]butyl}piperazine] | 20.5 | > 30 | > 1.5 | – | – | – | –
34 | 66 | 30 | COc1ccccc1N1CCN(CCCOc2ccc(-c3cn4cccnc4n3)cc2)CC1 [Compound 4510424, 1-(2-Methoxyphenyl)-4-{3-[4-(2-imidazo[1,2-a]pyrimidinyl)phenoxy]propyl}piperazine] | 8.9 | > 30 | 3.4 | – | – | – | –
29 | 122 | 48 | COc1ccccc1N1CCN(CCCOc2ccc(-c3cn4c(n3)SCC4)cc2)CC1 [Compound 4510473, 1-(2-Methoxyphenyl)-4-{3-[4-[6-(2,3-dihydroimidazo[2,1-b]thiazol)yl]phenoxy]jpropyl}piperazine] | 15.3 | > 30 | > 2.0 | – | – | – | –
23 | 96 | 56 | COc1ccccc1N1CCN(CCCOc2ccc(-c3cn4ccsc4n3)cc2)CC1 [Compound 4510472, 1-(2-Methoxyphenyl)-4-{3-[4-[6-imidazo[2,1-b]thiazolyl)phenoxy]propyl}piperazine] | 3.4 | ~10 | 2.9 | lower than or equal to that of clozapine | – | – | –
17 | 202 | 57 | COc1ccccc1N1CCN(CCCOc2ccc(-c3cn4ccccc4n3)cc2)CC1 [Compound 4510067, 1-(2-Methoxyphenyl)-4-{3-[4-(2-imidazo[1,2-a]pyridinyl)phenoxy]propyl}piperazine] | 7.2 | 16.2 | 2.3 | – | – | – | –

Reference: patent publication US6103724A, “2-methoxyphenylpiperazine derivatives” (Richter Gedeon Vegyeszeti Gyar Rt., priority 1996, dated 2000)
